The values that follow are results of earlier work, collected in US5516904A, “Acetylenes disubstituted with a heteroaromatic group and a substituted phenyl group having retinoid like activity” (Allergan, Inc., priority 1995, dated 1996).

In the data set the test system is ornithine decarboxylase (ODC). The note with it: result in words; literature background.

For `CC1=C(/C=C/C(C)=C/C=C/C(C)=C/C(=O)O)C(C)(C)CCC1` [Retionic acid, retinoic acid], the “inhibition of induction of ODC activity by TPA” value is recorded as “inhibits”.
